Reference: patent US20150265608A1, “Compounds for Treating Rac-GTPase Mediated Disorder” (Children's Medical Center Corporation, priority 2012, published 2015)

Tests used:
[1] = tested on: normal bone marrow hematopoietic progenitor cells; experiment: clonogenic assay in methylcellulose (colony formation) for toxicity; assay type: cell-based, mouse; details: compared to the other compounds
Procedure: Four of the lead compounds (Compounds 2, 3, 4, and 5) were screened for toxicity in normal bone marrow hematopoietic progenitor cells. Average colonies formed from normal BL-6 mouse bone marrow were counted following exposure of the four lead compounds individually at concentrations of 5 μM, 20 μM or 80 μM in methylcellulose. A clonogenic assay in methylcellulose was performed to assess colony formation. MethoCult base (StemCell Tech #03134) was mixed with the following reagents: fetal bovine serum, bovine serum albumin, IL-3, mSCF, EPO, beta-mercaptoethanol, penicillin, streptomycin, L-glutamine, and IMDM, and added to normal bone marrow cells. The cells in suspension are then plated and resulting colonies counted after 7 days.

Rac1-GTPase = target: T1, Rac1-GTPase (Homo sapiens, UniProt P63000); experiment: pull down assay for RAC-GTP with Western blot; assay type: cell-based; details: exposure of the cells for 5 and 60 minutes, FIG. 9b
T1 construct: The assay initially required treatment of cells followed by pull down and analysis with Western blot; endogenous in cells; host or cells: Leukemia cells
Procedure: To determine which of these compounds should be further pursued, a biochemical pull down assay was performed to confirm specific inhibition of Rac activation indicated by disruption of the interaction between Rac and […]. The assay initially required treatment of cells followed by pull down and analysis with Western blot. The cells were first starved in serum free media for 2 hours. They were then re-suspended in serum-containing medium and inhibitors added at desired concentration. Following incubation for the desired length of time, the cells were pelleted and lysed with Magnesium Lysis Buffer (Millipore Mg^2+lysis/wash buffer). The Rac protein and any bound proteins were then collected with Pak Beads (Millipore Rac/cdc42 Assay Reagent (PAK-1 PBD, agarose). Bound protein was subsequently removed with lysis buffer and subject to Western Blot analysis.
Additional analysis of Compound 5 was performed to assess its effects on apoptosis, cell death and RAC-GTPase interaction. FIG. 9a indicates the effect of OSSK—373747 on the apoptotic pathway in SEM cells. Apoptotic cells and dead cells following incubation of SEM cells with 20 and 80 μM of Compound 5 were analyzed using Annexin V staining.

leukemia cell lines = experiment: MTS assay of inhibition of proliferation; assay type: cell-based
Procedure: The 100 compounds selected from the initial in silico screen were assayed for inhibition of proliferation in two leukemia cell lines, SEM and REH, by MTS ((3-(4,5-dimethylthiazol-2-yl)-5-(3-carboxymethoxyphenyl)-2-(4-sulfophenyl)-2H-tetrazolium)) assay. The cells for the MTS assay were spun down and re-suspended. The cell suspension was then divided and the compound to be tested added in desired concentrations and subsequently plated. Following an incubation period, MTS reagent (Promega CellTiter 96® Aqueous Non-Radioactive Cell Proliferation Assay) was added and allowed to incubate. The absorbance is subsequently measured at 490 nm using a plate reader.
The five lead compounds, i.e. Compounds 1-5, were further analyzed for their effect on cell proliferation at various doses on different leukemia cells. First, each the five compounds was screened in nine leukemia cell lines: REH, SEM, MV411, RS411, Jurkat, Raji, Nomo-1, Naim6, and ML2 at a concentration of 20 μM. Four of the lead compounds, Compounds 2, 3, 4 and 5 were further tested in SEM and MV411 cells at a range of concentrations for inhibition of proliferation. In order to quantitate the percentage inhibition of cell proliferation, MTS analysis was completed as described in Example 2 above.

[2] = in vivo tolerability in NSG mice xenografted with MV411 cells
Procedure: In vivo tolerability of Compound 7 was evaluated in NSG mice xenografted with MV411 cells stably expressing luciferase via constitutive promoter. Compound 7 was prepared in a solution of 10% NMP, 5% CremaphorEL, 30% PEG200, and 55% D5W and administered PO at a dose of 50, 100, 250, or 500 mg/kg once each day for a period of 7 days. Five mice were utilized for each test group.
Body weight was recorded 3 times/week upon dosing. On treatment day 6, the mice were imaged via bioluminescence imaging to ensure the presence of the xenografted MV411 leukemia cells. Following the final dose, dose 7, at least 100 μL of blood was drawn via submandibular bleed for plasma collection. Eight hours following the last dose, cardiac puncture blood draw was performed for plasma collection.

O=C(CSc1nc2ccccc2n1Cc1ccccc1)N/N=C/c1ccccc1O [Compound 5]
toxicity to the normal cells (average colonies from normal mouse bone marrow) ([1]; 20 μM or 80 μM, FIG. 8): least toxicity
toxicity to normal bone marrow cells ([1]; summary statement): low toxicity
GTPase and Rac interaction (Rac1-GTPase): decrease in GTPase and Rac interaction
efficacy (inhibition of leukemia cell proliferation) (leukemia cell lines; summary of prior experiments, compared to the other compounds): strong efficacy

Cc1nn(Cc2ccc(F)cc2)c2sc(C(=O)Nc3ccc4c(c3)OCO4)cc12 [Compound 7]
in vivo tolerability ([2]; PO 50, 100, 250 or 500 mg/kg once each day for 7 days): tolerable
change in weight of animals ([2]; PO 50, 100, 250 or 500 mg/kg over a 7 day period, FIG. 19b): no progressive weight loss

NNC(=O)CSc1nc2ccccc2n1Cc1ccccc1 [Compound 12]
inhibitory activity on leukemia cell lines (leukemia cell lines; in vitro): retains inhibitory activity
